# Laboratory results reported in PubChem BioAssay (NCI).
#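 The compound was tested at five concentrations on cells cultured in 96-well plates, with a 48-hour exposure period. TGI: concentration producing complete growth inhibition.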
# Columns and labels:
# Experiment in all cases: inhibition of tumour cell growth, NCI panel, 48 h
# SW-620 colon = test system: SW-620 colon
# RXF 393 renal = test system: RXF 393 renal
# HOP-62 NSCLC = test system: HOP-62 NSCLC
# MOLT-4 leukemia = test system: MOLT-4 leukemia
# TK-10 renal = test system: TK-10 renal
# IGROV1 ovarian = test system: IGROV1 ovarian
# SNB-19 CNS = test system: SNB-19 CNS
# SF-268 CNS = test system: SF-268 CNS
# M14 melanoma = test system: M14 melanoma
# A549 NSCLC = test system: A549 NSCLC
# MDA-MB-435 = test system: MDA-MB-435
# MDA-N = test system: MDA-N
Structure (SMILES),TGI (SW-620 colon) [µM],TGI (RXF 393 renal) [µM],TGI (HOP-62 NSCLC) [µM],TGI (MOLT-4 leukemia) [µM],TGI (TK-10 renal) [µM],TGI (IGROV1 ovarian) [µM],TGI (SNB-19 CNS) [µM],TGI (SF-268 CNS) [µM],TGI (M14 melanoma) [µM],TGI (A549 NSCLC) [µM],TGI (MDA-MB-435) [µM],TGI (MDA-N) [µM]
CC(C)C1=CC(=O)C(C)(C2=NC(C)(C)CO2)c2ccccc21 (stereo not drawn),> 100,> 100,> 100,> 100,> 100,> 100,> 100,> 100,> 100,> 100,–,–
c1ccc2c(c1)n1c(N3CCOCC3)[n+]3ccccc3c1c1c3cccc[n+]3c(N3CCOCC3)n21,> 100,> 100,–,> 100,> 100,> 100,> 100,68.2,> 100,> 100,> 100,> 100
Nc1ccccc1C(=O)NNC(=O)c1ccccc1N,> 100,> 100,> 100,> 100,> 100,> 100,> 100,–,> 100,> 100,> 100,> 100
CCOC(=O)C(=O)Nc1ccc([N+](=O)[O-])cc1C#N,> 100,> 100,> 100,> 100,> 100,> 100,> 100,> 100,> 100,> 100,–,–
COc1ccccc1NC(=S)Nc1cccc(C)n1,> 100,> 100,> 100,> 100,> 100,> 100,> 100,> 100,> 100,> 100,> 100,–
CCOC(=O)Cc1nc2nn(Cc3ccccc3)cc2c(=O)[nH]1,> 100,> 100,> 100,> 100,> 100,> 100,> 100,> 100,–,> 100,> 100,> 100
CCOP(=O)(CCC(O)CNc1nc(N)nc(Cl)c1N=Nc1ccc(Cl)cc1)OCC (stereo not drawn),42.7,21.1,40.2,37.1,54.1,33,–,42.7,–,33.8,29.9,28.3
O=C(CSc1nnc(-c2ccc(N=Cc3ccc(Cl)cc3)cc2)o1)Nc1ccccc1,> 100,96.9,> 100,> 100,> 100,–,> 100,> 100,> 100,> 100,–,–
Cc1c(C(=O)Nc2ccc(Cl)c(C(F)(F)F)c2)oc2cc(O)ccc2/c1=N\NC(N)=S,> 100,> 100,> 100,> 100,> 100,> 100,> 100,> 100,> 100,> 100,–,–
NC(=S)Nc1nnc(-c2ccc(-c3nnc(NC(N)=S)o3)cc2)o1,> 100,> 100,> 100,> 100,> 100,> 100,> 100,> 100,> 100,> 100,–,–
